{"source": "patent US7771652B2", "about": "“Combined use of an alkaline earth metal compound and a sterilizing agent to maintain osteoinduction properties of a demineralized bone matrix” (Novasterilis, Inc., priority 2008, dated 2010)", "tested_on": "CFUs", "experiment": "Reduction in CFUs with additive-containing supercritical carbon dioxide sterilant fluid", "format": "cell-based", "details": "additive in supercritical carbon dioxide under sterilization temperature and pressure conditions", "from_the_text": "It has been observed that 6-log reductions in CFUs may be achieved in accordance with the present invention by subjecting materials to be sterilized under sterilization temperature and pressure conditions using an additive-containing supercritical carbon dioxide as a sterilant fluid, wherein the additive is carbonic anhydrase. Further, this process is enhanced where the sterilant fluid is agitated during the sterilization process."}
{"substance": "carbonic anhydrase", "values": [{"measurement": "reductions in CFUs", "value": 6, "unit": "log"}]}
